This passage reports MIC50 and antifungal activity results from patent US10441550B2, “Nanofibrous materials as drug, protein, or genetic release vehicles” (BioSurfaces, Inc., priority 2005, dated 2019).

For assay [1] the following is noted: organism not given; cited from earlier work.
The subject of assay [2] is Candida albicans. Put plainly: Turbidity assay (broth macrodilution, NCCLS M27-A). It is filed as cell-based. The note with it: 40 micrograms Diflucan in solution; activity decreases as inoculum increases.
Protocol: Candida albicans was purchased from ATCC.
A broth macrodilution assay was performed based on the NCCLS M27-A protocol. The stock fungal inoculum concentration was determined via backplating a set volume of the diluted fungus broth onto Trypticase Soy Agar plates. The number of colony forming units (cfu) grown per plate was then counted and extrapolated to determine the starting Candida concentration.
The stock fungus solution was then diluted to 10^6, 10^5 and 10^4 cfu/ml. After incubating the individual test segments in 2 ml of the fungus solutions for 24 hours at 30° C., the optical density of the broth solutions was measured at 492 nm.

On to `O=C(O)c1cn(C2CC2)c2cc(N3CCNCC3)c(F)cc2c1=O` [Cipro, Ciprofloxacin], for which the MIC50 in assay [1] was 0.26 micrograms per ml.

As to `OC(Cn1cncn1)(Cn1cncn1)c1ccc(F)cc1F` [Diflucan, Fluconazole], in assay [2], the antifungal activity result is listed as “excellent antifungal activity”.
